According to patent US20070219214A1, “Dual NK2/NK3-antagonists, pharmaceutical compositions comprising them, and processes for their preparation” (Solvay pharmaceuticals GmbH, priority 2006, published 2007):

Legend:
[1] = biological target: T1, NK3-receptor (Meriones unguiculatus, UniProt Q2YHR0); assay: NK3-receptor-antagonistic effectiveness in vivo, senktide-induced hypothermia in gerbils; conditions: gerbil; for Inhibition of temperature increase at t = 60 minutes after oral (po) administration: senktide 0.03 mg/kg sc; for Inhibition of temperature increase at a dose of 10 mg/kg after parenteral (ip) administration: 10 mg/kg ip
T1 construct: from tissue; host or cells: whole animal (male gerbils), in vivo
T1 sequence (Q2YHR0 1-454): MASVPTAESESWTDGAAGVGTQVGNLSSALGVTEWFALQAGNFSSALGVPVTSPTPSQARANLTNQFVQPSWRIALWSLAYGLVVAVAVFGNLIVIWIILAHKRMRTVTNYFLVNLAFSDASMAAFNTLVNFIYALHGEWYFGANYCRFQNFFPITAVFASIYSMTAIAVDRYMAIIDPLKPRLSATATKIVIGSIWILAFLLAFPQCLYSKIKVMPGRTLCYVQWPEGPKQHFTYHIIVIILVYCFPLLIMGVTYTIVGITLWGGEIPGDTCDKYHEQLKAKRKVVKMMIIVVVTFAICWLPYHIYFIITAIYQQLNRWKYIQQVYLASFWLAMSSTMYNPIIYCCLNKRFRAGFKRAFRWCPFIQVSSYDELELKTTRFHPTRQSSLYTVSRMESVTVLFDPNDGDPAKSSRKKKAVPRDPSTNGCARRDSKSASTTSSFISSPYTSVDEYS
Method: 8. Determination of the NK3-Receptor-Antagonistic Effectiveness of the Test Substances In Vivo (Reduction of Body Temperature in Gerbils with Senktide-Induced Hypothermia)
NK3 agonists reduce the body temperature of gerbils. The senktide-induced hypothermia can be antagonized by administering compounds with NK3-antagonistic properties. Measuring the level of hypothermia is indicative for the degree of activity of the test compounds. The own effect of the tested compound is assessed in the same experiment to exclude an additional hyperthermic effect.
Male gerbils with a body weight between 60 to 90 g are housed in groups under normal day-night rhythm and under constant environmental temperature (room temperature: 21±2° C.) with a constant relative humidity level (50±10%). Water and food are freely available. […] Antagonists: see example compounds in table X.
The animals are weighted and marked 60 minutes prior to the agonist administration. For oral (po) testings, the test compounds are administered at t=−60 minutes. For parenteral or subcutaneous (i por sc, resp.) administration, at t=−30 minutes. […] At t=15 minutes the temperature is measured orally, and registered with a 0.1° C. accuracy after a 10 second reading. This way, animals are measured every 60 sec.

[2] = biological target: human NK1-receptor (Homo sapiens, UniProt P25103); assay: Binding potency of the test substances to NK1-receptors in vitro ([3H]-Substance P displacement); conditions: human NK1-receptor in CHO cell membranes, average of at least three measurements, read-out: pKi, binding potency to NK1-receptors (converted)
[3] = biological target: T2, NK3-receptor (Cavia porcellus, UniProt P30098); assay: Functional NK3-receptor antagonism in ileal preparations isolated from guinea pigs; conditions: guinea pig ileum, [MePhe7]-neurokinin B-induced contraction
T2 construct: from tissue; host or cells: whole animal (Dunkin Hartley guinea pigs), in vivo
T2 sequence (P30098 1-440): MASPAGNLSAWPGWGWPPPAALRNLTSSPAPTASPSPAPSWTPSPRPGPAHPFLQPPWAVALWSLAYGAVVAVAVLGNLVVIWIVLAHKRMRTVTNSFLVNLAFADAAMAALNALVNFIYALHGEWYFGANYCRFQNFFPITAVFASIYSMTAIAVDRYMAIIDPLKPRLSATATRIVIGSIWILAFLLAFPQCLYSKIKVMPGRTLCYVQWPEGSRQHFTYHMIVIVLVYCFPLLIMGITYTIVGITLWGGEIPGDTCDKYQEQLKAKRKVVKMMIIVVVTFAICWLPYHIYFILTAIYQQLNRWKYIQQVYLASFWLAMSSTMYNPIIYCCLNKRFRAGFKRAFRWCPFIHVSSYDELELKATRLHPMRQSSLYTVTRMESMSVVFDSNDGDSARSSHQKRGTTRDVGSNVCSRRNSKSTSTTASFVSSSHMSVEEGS
Method: 7. Determination of Functional NK3-Receptor Antagonism of Test Compounds in Tissue Isolated from Guinea Pigs.
The NK3-antagonistic action of test compounds was tested in ileal preparations isolated from guinea pigs. The preparations were kept in an oxygenated nutrient solution kept at 37° C. For measuring contraction of the longitudinal muscle of the ileum, the preparations were fixed to a hook and connected to force displacement transducers. Contractions were recorded on a pen recorder.
The NK3-receptors were stimulated with the NK3-receptor agonist [MePhe^7]-neurokinin B, causing a contraction of the muscle. Before (predrug) and after the administration of the test compound such contractions were measured and quantified in percent of the predrug contraction. 2-3 concentrations of the test compound were applied showing the inhibition of the receptor stimulation concentration dependently. […] The pIC50 value indicates the inhibitory potency of the test compounds to the NK3-receptor.

[4] = biological target: T3, NK1-receptor (Cavia porcellus, UniProt P30547); assay: Functional NK1-receptor antagonism in aortic ring preparations isolated from guinea pigs; conditions: Substance P-induced relaxation
T3 construct: from tissue; host or cells: whole animal (Pirbright-White guinea pigs), in vivo
Method: 5. Determination of Functional NK1-Receptor Antagonism of Test Compounds in Tissue Isolated from Guinea Pigs.
The NK1-antagonistic action of test compounds was tested in aortic ring preparations isolated from guinea pigs. The preparations were kept in an oxygenated nutrient solution kept at 37° C. For measuring contraction of the circular vascular muscle, the preparations were fixed to a hook and connected to force displacement transducers. Contractions/relaxations were recorded on a pen recorder. The preparations were given a medium tonus by addition of phenylephrine.
Before (predrug) and after the administration of the test compound such relaxations were measured and quantified in percent of the predrug relaxation. 2-3 concentrations of the test compound were applied showing the inhibition of the receptor stimulation concentration dependently. The concentration of half-maximal inhibition (IC50) and its negative logarithm pIC50=−log(IC50) was calculated. The pIC50 value indicates the inhibitory potency of the test compounds to the NK1-receptor.

[5] = t = 30 minutes after administration

human NK1-receptor, sequence (P25103 whole entry): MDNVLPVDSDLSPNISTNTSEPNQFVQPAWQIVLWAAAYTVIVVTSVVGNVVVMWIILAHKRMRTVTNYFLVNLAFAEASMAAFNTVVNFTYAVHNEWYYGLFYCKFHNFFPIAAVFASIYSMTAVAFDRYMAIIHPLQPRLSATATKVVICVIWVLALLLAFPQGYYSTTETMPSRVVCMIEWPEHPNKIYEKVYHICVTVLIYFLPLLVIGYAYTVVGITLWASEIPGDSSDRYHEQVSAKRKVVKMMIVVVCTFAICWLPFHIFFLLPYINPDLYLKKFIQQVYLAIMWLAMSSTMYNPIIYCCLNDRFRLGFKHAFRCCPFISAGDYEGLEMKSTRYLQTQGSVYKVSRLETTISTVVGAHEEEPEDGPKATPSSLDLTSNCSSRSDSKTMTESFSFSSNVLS
T3 sequence (P30547 whole entry): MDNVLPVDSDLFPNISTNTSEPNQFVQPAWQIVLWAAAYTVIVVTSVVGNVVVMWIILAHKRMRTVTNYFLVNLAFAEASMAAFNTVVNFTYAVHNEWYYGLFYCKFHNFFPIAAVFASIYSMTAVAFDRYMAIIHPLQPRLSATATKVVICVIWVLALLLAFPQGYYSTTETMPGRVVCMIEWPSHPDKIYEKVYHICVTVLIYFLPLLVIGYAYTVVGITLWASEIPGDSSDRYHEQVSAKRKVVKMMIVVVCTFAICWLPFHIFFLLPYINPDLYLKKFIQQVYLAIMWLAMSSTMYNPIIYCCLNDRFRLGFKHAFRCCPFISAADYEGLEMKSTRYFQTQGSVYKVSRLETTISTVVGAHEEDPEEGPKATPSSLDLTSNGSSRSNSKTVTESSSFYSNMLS

## CN(C)C(=O)C1(N2CCCCC2)CCN(CC[C@H](CN(C)C(=O)c2ccccc2)c2ccc(Cl)c(Cl)c2)CC1 [compound 1]
[1]; Dose: 10 mg/kg po
  Inhibition of temperature increase at t = 60 minutes after oral (po) administration: 37%
[1]; Dose: 30 mg/kg po
  Inhibition of temperature increase at t = 60 minutes after oral (po) administration: 54%
[2]
  Ki: 79.4 nM

## CN(C)C(=O)C1(N2CCCCC2)CCN(CC[C@H](CN(C)C(=O)C2CCCCC2)c2ccc(Cl)c(Cl)c2)CC1 [compound 3]
[3]
  pA2, functional NK3-antagonism on isolated guinea pig tissue: 8.5

## CN(C)C(=O)C1(N2CCCCC2)CCN(CC[C@H](CN(C)C(=O)c2ccc(F)cc2)c2ccc(Cl)c(Cl)c2)CC1 [compound 4]
[1]; t = 15 minutes after administration
  Inhibition of temperature increase at a dose of 10 mg/kg after parenteral (ip) administration: 54%
[1]; [5]
  Inhibition of temperature increase at a dose of 10 mg/kg after parenteral (ip) administration: 68%
[3]
  pA2, functional NK3-antagonism on isolated guinea pig tissue: 8.0

## CN(C)C(=O)C1(N2CCCCC2)CCN(CC[C@H](CN(C)C(=O)c2ccc(O)cc2)c2ccc(Cl)c(Cl)c2)CC1 [compound 6, 1′-{(3S)-3-(3,4-dichlorophenyl)-4-[(4-hydroxybenzoyl)-(methyl)amino]butyl}-N,N-dimethyl-1,4′-bipiperidine-4′-carboxamide]
[1]; [5]
  Inhibition of temperature increase at a dose of 10 mg/kg after parenteral (ip) administration: 75%

## CN(C)C(=O)C1(N2CCCCC2)CCN(CC[C@H](CN(C)C(=O)c2cc(C#N)c3ccccc3c2)c2ccc(Cl)c(Cl)c2)CC1 [compound 11]
[4]
  pIC50, functional NK1-antagonism on isolated guinea pig tissue: 8.26
